Source: ChEMBL document CHEMBL5365463, “Identification of a Self-Assembling Small-Molecule Cancer Vaccine Adjuvant with an Improved Toxicity Profile” (J Med Chem, 2023)
The source made the active and inactive calls. The rule behind the calls is not given here.

Tests used:
[1] = species: Mus musculus; assay: Induction of immune response in C57BL/6 mouse assessed as increase in total CD8+T cells percentage in spleen at 100 ug measured after 35 days by flow cytometry analysis; assay type: functional, organism-based; conditions: dose 100.0 µg, time 35.0 day
[2] = system: BMDC; assay: Upregulation of CD86 expression in mouse BMDC cells at 5 to 50 uM measured after 24 hrs in presence of OVAp by flow cytometry analysis; assay type: functional, cell-based; conditions: dose 5-50 µM
[3] = system: RAW264.7; assay: Induction of apoptosis in mouse RAW264.7 cells assessed as apoptotic cells at 4 uM by flow cytometry analysis (reference value: 3.26 %); assay type: functional
[4] = Upregulation of CD86 expression in mouse BMDC cells assessed as fold increase at 5 to 50 uM measured after 24 hrs in presence of OVAp by flow cytometry analysis; assay type: functional; conditions: dose 5-50 µM
[5] = system: RAW264.7; assay: Upregulation of CD86 expression in mouse RAW264.7 cells measured after 24 hrs by flow cytometry analysis; assay type: functional, cell-based; conditions: dose 10-50 µM
[6] = Toxicity in C57BL/6 mouse assessed as effect on glucose level in serum at 500 ug measured after 1 day after immunization; conditions: 24 h, dose 500 µg
[7] = Antitumor activity against mouse B16-OVA melanoma cell xenografted in C57BL/6 mouse assessed as fold increase in IFN-gamma+TNF-alpha+ at 500 ug, sc in presence of OVAp by flow cytometry analysis; assay type: functional; conditions: dose 500 µg
[8] = Toxicity in BALB/c mouse assessed as effect on body weight loss at 1000 ug measured after 16 hrs in presence of hemagglutinin; conditions: in vivo, dose 1000 µg
[9] = system: RAW264.7; assay: Induction of apoptosis in mouse RAW264.7 cells assessed as necrotic cells at 8 uM by flow cytometry analysis (reference value: 20.6 %); assay type: functional
[10] = system: BMDC; assay: Induction of immune response in TLR7 knockout mouse BMDC cells assessed as increase in CXCL10 production at 10 to 100 uM incubated for 24 hrs by ELISA method; assay type: functional, cell-based; conditions: dose 10-100 µM
[11] = Upregulation of CD86 expression in mouse RAW264.7 cells assessed as fold increase in fluorescence intensity at 20 uM measured after 24 hrs by flow cytometry analysis; assay type: functional
[12] = species: Mus musculus; assay: Induction of immune response in OVAp immunized C57BL/6 mouse assessed as fold increase in IFN-gamma+ cytotoxic T lymphocytes at 100 ug measured after 35 days by flow cytometry analysis; assay type: functional, T-cell; conditions: dose 100 µg; time 35 day
[13] = Toxicity in C57BL/6 mouse assessed as effect on spleen at 500 ug, sc by H and E staining based analysis; assay type: organism-based; conditions: in vivo, dose 500 µg
[14] = system: RAW264.7; assay: Induction of apoptosis in mouse RAW264.7 cells assessed as apoptotic cells at 16 uM by flow cytometry analysis (reference value: 3.26 %); assay type: functional
[15] = system: RAW264.7; assay: Induction of apoptosis in mouse RAW264.7 cells assessed as necrotic cells at 10 uM by flow cytometry analysis (reference value: 20.6 %); assay type: functional
[16] = Upregulation of CD40 expression in mouse RAW264.7 cells assessed as fold increase in fluorescence intensity at 20 uM measured after 24 hrs by flow cytometry analysis; assay type: functional
[17] = Toxicity in BALB/c mouse assessed as reduction in platelet count measured after 16 hrs; conditions: dose 100-1000 µg
[18] = system: Mus musculus; assay: Immuno-adjuvant activity in SV-immunized C57BL/6 mouse assessed as increase in HA-specific IgG1 titer level at 100 ug, sc administered immediately and on day 0, 14 and measured at day 21 by ELISA; assay type: functional, organism-based; conditions: dose 100.0 µg, time 21.0 day
[19] = Toxicity in C57BL/6 mouse assessed as effect on liver at 500 ug, sc by H and E staining based analysis; assay type: organism-based; conditions: in vivo, dose 500 µg
[20] = Toxicity in BALB/c mouse assessed as increase in Timp1 expression at 100 to 1000 ug measured after 16 hrs in presence of hemagglutinin; conditions: in vivo, dose 100-1000 µg
[21] = system: B16-OVA melanoma cell; assay: Antitumor activity against mouse B16-OVA melanoma cell xenografted in C57BL/6 mouse assessed as at 500 ug administered 5 times for every 2 days from day 9 to 17 in presence of OVAp; assay type: functional, cell-based; conditions: dose 500.0 µg, time 9.0 day
[22] = system: BMDC; assay: Induction of immune response in TLR7 knockout mouse BMDC cells assessed as increase in TNF-alpha production at 10 to 100 uM incubated for 24 hrs by ELISA method; assay type: functional, cell-based; conditions: dose 10-100 µM
[23] = system: RAW264.7; assay: Induction of apoptosis in mouse RAW264.7 cells assessed as apoptotic cells at 8 uM by flow cytometry analysis (reference value: 3.26 %); assay type: functional
[24] = Toxicity in C57BL/6 mouse assessed as effect on ALB level in serum at 500 ug measured after 1 day after immunization; conditions: 24 h, dose 500 µg
[25] = system: B16-OVA melanoma cell; assay: Antitumor activity against mouse B16-OVA melanoma cell xenografted in C57BL/6 mouse assessed as increase in number of memory T cells in spleen at 500 ug, sc in presence of OVAp by flow cytometry analysis; assay type: functional, organism-based; conditions: dose 500.0 µg
[26] = Toxicity in C57BL/6 mouse assessed as effect on kidney at 500 ug, sc by H and E staining based analysis; assay type: organism-based; conditions: in vivo, dose 500 µg
[27] = Toxicity in C57BL/6 mouse assessed as effect on ALP level in serum at 500 ug measured after 1 day after immunization; conditions: 24 h, dose 500 µg
[28] = system: RAW264.7; assay: Induction of apoptosis in mouse RAW264.7 cells assessed as live cells at 10 uM by flow cytometry analysis (reference value: 75.4 %); assay type: functional
[29] = Toxicity in C57BL/6 mouse assessed as effect on heart at 500 ug, sc by H and E staining based analysis; assay type: organism-based; conditions: in vivo, dose 500 µg
[30] = system: RAW264.7; assay: Upregulation of CD40 expression in mouse RAW264.7 cells measured after 24 hrs by flow cytometry analysis; assay type: functional, cell-based; conditions: dose 10-50 µM
[31] = system: B16-OVA melanoma cell; assay: Antitumor activity against mouse B16-OVA melanoma cell xenografted in C57BL/6 mouse assessed as at 500 ug administered 5 times for every 2 days from day 9 to 17; assay type: functional, cell-based; conditions: dose 500.0 µg, time 9.0 day
[32] = system: RAW264.7; assay: Induction of apoptosis in mouse RAW264.7 cells assessed as live cells at 8 uM by flow cytometry analysis (reference value: 75.4 %); assay type: functional
[33] = Toxicity in C57BL/6 mouse assessed as effect on ALT level in serum at 500 ug measured after 1 day after immunization; conditions: 24 h, dose 500 µg
[34] = system: RAW264.7; assay: Induction of apoptosis in mouse RAW264.7 cells assessed as necrotic cells at 16 uM by flow cytometry analysis (reference value: 20.6 %); assay type: functional
[35] = system: BMDC; assay: Induction of immune response in TLR7 knockout mouse BMDC cells assessed as increase in IL-6 production at 10 to 100 uM incubated for 24 hrs by ELISA method; assay type: functional, cell-based; conditions: dose 10-100 µM
[36] = system: RAW264.7; assay: Induction of apoptosis in mouse RAW264.7 cells assessed as live cells at 4 uM by flow cytometry analysis (reference value: 75.4 %); assay type: functional
[37] = system: BMDC; assay: Induction of immune response in TLR7 knockout mouse BMDC cells assessed as increase in IFN-beta production at 10 to 100 uM incubated for 24 hrs by ELISA method; assay type: functional, cell-based; conditions: dose 10-100 µM
[38] = system: BMDC; assay: Induction of IL-6 production in mouse BMDC cells at 100 uM; assay type: functional, cell-based

C[C@H](CCC(=O)NCCCCCCCNC(=O)CC[C@@H](C)[C@H]1CC[C@H]2[C@@H]3CC[C@@H]4C[C@H](O)CC[C@]4(C)[C@H]3C[C@H](O)[C@]12C)[C@H]1CC[C@H]2[C@@H]3CC[C@@H]4C[C@H](O)CC[C@]4(C)[C@H]3C[C@H](O)[C@]12C
Activity [1]: Active | Activity [2]: Active | Activity [3]: 2.1% | fold change (FC) [4]: 1.2 | Activity [5]: Dose-Dependent Effect | Activity [6]: Non-Toxic | fold change (FC) [7]: 2.8 | Activity [8]: Non-Toxic | Activity [9]: 36.1% | Activity [10]: inactive | fold change (FC) [11]: 2 | fold change (FC) [12]: 7.6 | Activity [13]: Non-Toxic | Activity [14]: 0.63% | Activity [15]: 28.6% | fold change (FC) [16]: 1.3 | Activity [17]: Dose-Dependent Effect | Activity [18]: Active | Activity [19]: Non-Toxic | Activity [20]: Non-Toxic | Activity [21]: Active | Activity [22]: inactive | Activity [23]: 1.47% | Activity [24]: Non-Toxic | Activity [25]: Active | Activity [26]: Non-Toxic | Activity [27]: Non-Toxic | Activity [28]: 67.2% | Activity [29]: Non-Toxic | Activity [30]: Dose-Dependent Effect | Activity [31]: inactive | Activity [32]: 60.7% | Activity [33]: Non-Toxic | Activity [34]: 34% | Activity [35]: inactive | Activity [36]: 77.8% | Activity [37]: inactive | Activity [38]: Active
